Experiments:
[1] = test system: MRSA 252; experiment: MIC, broth micro-dilution; assay type: cell-based, Staphylococcus aureus
Method in brief: (§1)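 S. aureus cultures grown 18 h in TSB were used to inoculate twofold antibiotic series in TSB at 5×10^5 CFU/mL, per CLSI guidelines. Growth curves read by optical density at 12-min intervals for 18 h at 37 °C were fitted sigmoidally to calculate MIC.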

[2] = test system: MSSA 476; experiment: MIC, broth micro-dilution; assay type: cell-based, Staphylococcus aureus
Method in brief: as §1

[3] = test system: MRSA 252; experiment: Disc diffusion (Kirby-Bauer), zone of inhibition; assay type: cell-based, Staphylococcus aureus; settings: 500 μg/mL, '/' = no zone
Method in brief: (§2)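 Zones of inhibition recorded after 24 h at 37 °C on Mueller-Hinton agar. Agar was inoculated with 1 in 200 diluted 18 h broth cultures, and discs carried 50 μL of antibiotic. Method follows CLSI 2017 disc diffusion.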

[4] = test system: MSSA 476; experiment: Disc diffusion (Kirby-Bauer), zone of inhibition; assay type: cell-based, Staphylococcus aureus; settings: 500 μg/mL, '/' = no zone
Method in brief: as §2

[5] = test system: red blood cells; experiment: Hemolysis assay (CO-ADD); assay type: cell-based; settings: 32 μg/mL highest concentration tested
Text: A problem often encountered by emerging drugs is hemolysis, also known as drug-induced immune hemolytic anemia.

[6] = test system: Escherichia coli DH5α; experiment: Disc diffusion (Kirby-Bauer), zone of inhibition; assay type: cell-based; settings: Escherichia coli DH5α; 500 μg/mL; '/' = no zone
Method in brief: as §2

[7] = test system: Staphylococcus aureus 15981; experiment: Disc diffusion (Kirby-Bauer), zone of inhibition; assay type: cell-based; settings: Staphylococcus aureus 15981; 500 μg/mL; '/' = no zone
Method in brief: as §2

[8] = test system: various Staphylococcus aureus strains; experiment: Disc diffusion, Staphylococcus aureus strain study; assay type: cell-based; settings: 500 μg/mL
Method in brief: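 Kirby-Bauer disc diffusion on Mueller-Hinton agar spread with 1:200 dilution of overnight S. aureus cultures (TSB, 37 °C). Discs loaded with 50 μL of compound at 500 μg/mL; zone of inhibition recorded after 24 h at 37 °C.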

[9] = test system: HEK293 cells; experiment: Cytotoxicity assay, resazurin (CO-ADD)
Method in brief: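 HEK293 cells in DMEM with 10% FBS were exposed to compounds at a single concentration of 32 μg/mL for 20 h at 37° C, 5% CO2. Viability read by resazurin fluorescence (2.3 μg/mL final, 3 h; F560/590). CC50 from sigmoidal dose-response fitting.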

**Q.** Which results are given for “(2-Isocyanovinyl)-4-acetaamido benzene [Compound 22]”?
**A.** MIC [1]: 55 µg/mL; MIC [2]: 172 µg/mL; Zone of inhibition [3]: 20 mm; Zone of inhibition [4]: 16 mm; Hemolytic activity (HC10) [5]: >32 µg/mL; Zone of inhibition [6]: 20 mm; Zone of inhibition [7]: 18 mm; Zone of inhibition ([8]; strain ASARM 61): 18 mm; Zone of inhibition ([8]; strain ASARM 70): 18 mm; Zone of inhibition ([8]; strain ASARM 71): 20 mm; Zone of inhibition ([8]; strain ASARM 72): 22 mm; Zone of inhibition ([8]; strain ASARM 73): 20 mm; Zone of inhibition ([8]; strain ASARM 75): 22 mm; Zone of inhibition ([8]; strain ASARM 76): 26 mm; Zone of inhibition ([8]; strain ASARM 77): 24 mm; Zone of inhibition ([8]; strain ASARM 79): 22 mm; Zone of inhibition ([8]; strain ASARM 80): 26 mm; Zone of inhibition ([8]; strain EOE 3): 20 mm; Zone of inhibition ([8]; strain EOE 23): 22 mm; Zone of inhibition ([8]; strain EOE 30): 20 mm; Zone of inhibition ([8]; strain EOE 35): 18 mm; Zone of inhibition ([8]; strain EOE 41): 20 mm; Zone of inhibition ([8]; strain EOE 42): 22 mm; Zone of inhibition ([8]; strain EOE 45): 26 mm; Zone of inhibition ([8]; strain EOE 52): 22 mm; Zone of inhibition ([8]; strain EOE 54): 16 mm; Zone of inhibition ([8]; strain EOE 57): 18 mm; Zone of inhibition ([8]; strain MRSA 252): 20 mm; Zone of inhibition ([8]; strain S139_7_7): 16 mm; Zone of inhibition ([8]; strain S197_1_1): 22 mm; Zone of inhibition ([8]; strain S197_1_8): 24 mm; Zone of inhibition ([8]; strain S197_1_9): 26 mm; Zone of inhibition ([8]; strain S197_1_10): 22 mm; Zone of inhibition ([8]; strain S295_1_1): 20 mm; Zone of inhibition ([8]; strain S295_1_2): 20 mm; Zone of inhibition ([8]; strain S295_1_3): 20 mm; Zone of inhibition ([8]; strain S364_5_11): 22 mm; Zone of inhibition ([8]; strain S364_5_12): 20 mm; Zone of inhibition ([8]; strain Sa_TPS 3026): 20 mm; Zone of inhibition ([8]; strain Sa_TPS 3072): 22 mm; Zone of inhibition ([8]; strain Sa_TPS 3092): 24 mm; Zone of inhibition ([8]; strain Sa_TPS 3097): 24 mm; Zone of inhibition ([8]; strain Sa_TPS 3103): 22 mm; Zone of inhibition ([8]; strain Sa_TPS 3104): 20 mm; Zone of inhibition ([8]; strain Sa_TPS 3106): 26 mm; Zone of inhibition ([8]; strain Sa_TPS 3118): 18 mm; Zone of inhibition ([8]; strain Sa_TPS 3133): 18 mm; Zone of inhibition ([8]; strain Sa_TPS 3134): 18 mm; Zone of inhibition ([8]; strain USFL 008): 14 mm; Zone of inhibition ([8]; strain USFL 009): 14 mm; Zone of inhibition ([8]; strain USFL 012): 16 mm; Zone of inhibition ([8]; strain USFL 016): 18 mm; Zone of inhibition ([8]; strain USFL 018): 18 mm; Zone of inhibition ([8]; strain USFL 020): 16 mm; Zone of inhibition ([8]; strain USFL 021): 16 mm; Zone of inhibition ([8]; strain USFL 028): 15 mm; Zone of inhibition ([8]; strain USFL 035): 16 mm; Zone of inhibition ([8]; strain USFL 054): 19 mm; Zone of inhibition ([8]; strain not given): 18 mm; Concentration toxic to HEK 293 cells ([9]; HEK 293): >32 µg/mL; toxicity towards the HEK293 cell line (in words) ([9]; set concentration of 32 μg/mL): no toxicity
